Experimental data: article PMC7443514 (Bioorganic & medicinal chemistry, 2020)
Read-outs that look alike come from different tables or passages of the source.

Assays:
[1] = target: T1, SARM1 TIR domain (bacterial lysate) (Homo sapiens, UniProt Q6SZW1); format: biochemical; details: ENAD 0-400 μM; for Inhibition Mechanism: bacterially expressed TIR domain lysate
T1 sequence (Q6SZW1 561-724): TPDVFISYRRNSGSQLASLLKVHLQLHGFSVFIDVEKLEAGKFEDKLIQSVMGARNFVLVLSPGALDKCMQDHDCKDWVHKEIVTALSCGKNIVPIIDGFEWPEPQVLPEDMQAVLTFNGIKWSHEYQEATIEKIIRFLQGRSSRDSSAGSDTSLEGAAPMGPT

SARM1 = details: substrate analog; cited from earlier work
[2] = target: T2, purified SARM1 TIR domain (Homo sapiens, UniProt Q6SZW1); assay: Dose response, ENAD assay, purified TIR domain; format: biochemical; details: purified TIR domain (20 μM), 500 μM ENAD
T2 sequence (Q6SZW1 561-724): T1 sequence (Q6SZW1 561-724)

[3] = target: T1, SARM1 TIR domain (bacterial lysate); details: cited from earlier work

With Cl.Nc1ccc(/N=N/c2ccccc2)c(N)n1 [Phenazopyridine Hydrochloride, Phenazopyridine hydrochloride] the “Inhibition Mechanism” value [1] was “Competitive”.

For [O-][n+]1ccccc1[S-].[O-][n+]1ccccc1[S-].[Zn+2] [Pyrithone Zinc, Pyrithone zinc], the “Inhibition Mechanism” value [1] was “Noncompetitive”.

For NC(=O)c1ccc[n+]([C@@H]2O[C@H](COP(=O)([O-])OP(=O)(O)OC[C@H]3O[C@@H](n4cnc5c4ncn4ccnc54)[C@H](O)[C@@H]3O)[C@@H](O)[C@H]2O)c1 [ENAD, Nicotinamide 1,N^6-ethenoadenine dinucleotide], the Km (SARM1) is listed as 35 ± 15 µM and the kcat (SARM1) is listed as 0.05 ± 0.04 s⁻¹.

In the case of C[C@H]1c2cccc(O)c2C(=O)C2=C(O)[C@]3(O)C(=O)C(C(N)=O)=C(O)[C@@H](N(C)C)[C@@H]3[C@@H](O)[C@@H]21.Cl [Doxycycline Hydrochloride, Doxycycline hydrochloride], the “Inhibition Mechanism” value [1] is reported as “Noncompetitive”.

In the case of NC(=O)N/N=C/c1ccc([N+](=O)[O-])o1 [Nitroflurazone], the “Inhibition Mechanism” value [1] is reported as “Noncompetitive”.

With [Cl-].[Cl-].[Zn+2] [Zinc Chloride, Zinc chloride] the Ki ([1]; bacterially expressed TIR domain (300 nM) lysate) was 3.3 ± 0.1 µM, the “Inhibition Mechanism” value [1] was “Noncompetitive” and the IC50 [2] was 10 ± 1 µM. For the same molecule, the Inhibition Mechanism [3] was “noncompetitive” and the Ki [3] was 3.3 ± 0.1 µM.
